{"source": "paper PMC8151276", "about": "“An Integrated Approach toward NanoBRET Tracers for Analysis of GPCR Ligand Engagement” (Molecules, 2021)", "key": {"[1]": {"system": "alpha-Adrenergic receptors", "test": "Competitive displacement of Clozapine-a-2-NB590 by unmodified scaffold (NanoBRET)", "type": "binding, human", "details": "for NanoBRET Fold Response, other tracers/XAC (unmodified): displaced by unmodified XAC; for Interaction verified via competitive displacement of tracer: tracer Clozapine-a-2-NB590, alpha-Adrenergic receptors", "description": "Finally, we opted to compare the machine learning predictions for the 17 scaffolds to the empirical NanoBRET evaluations across 36 GPCR families investigated by both strategies (Figure 7). […] At the same time, empirical NanoBRET results for each scaffold were consolidated to include results for all relevant fluorescent tracer candidates screened at either 1 μM or 0.1 μM tracer concentrations. […] These additional verifications were incorporated to the comparative analysis and are also included in the compiled screening results (Supplementary Materials Excel spreadsheet)."}, "[2]": {"system": "5-Hydroxytryptamine receptors", "test": "Competitive displacement of Clozapine-a-2-NB590 by unmodified scaffold (NanoBRET)", "type": "binding, human", "details": "tracer Clozapine-a-2-NB590", "excerpt": "(§1) Finally, we opted to compare the machine learning predictions for the 17 scaffolds to the empirical NanoBRET evaluations across 36 GPCR families investigated by both strategies (Figure 7). The highest correlation between model-predicted and NanoBRET-confirmed interactions was found using minimal thresholds of ≥4% classification probability and ≥1.5-fold response, respectively (Figure S11). These thresholds provided the best balance between model accuracy and a low percentage of false predictions. Accordingly, machine learning predictions for all unmodified scaffolds were compiled (Figure S6) and those above the minimum 4% probability threshold were classified as positive interactions (Figure 7A). At the same time, empirical NanoBRET results for each scaffold were consolidated to include results for all relevant fluorescent tracer candidates screened at either 1 μM or 0.1 μM tracer concentrations. […] One caveat comparing model predictions to empirical NanoBRET evaluations is their use of unmodified versus fluorescently modified scaffolds, respectively. Therefore, model predictions not verified by BRET could in part be the result of fluorophore interference with binding interactions. […]"}, "Dopamine receptors": {"system": "Dopamine receptors", "test": "Competitive displacement of Clozapine-a-2-NB590 by unmodified scaffold (NanoBRET)", "type": "binding, human", "details": "tracer Clozapine-a-2-NB590", "excerpt": "as §1"}, "ADRB1": {"molecular_target": "T1, ADRB1 (Homo sapiens, UniProt P08588)", "T1 construct": "purchased Promega (in-house HiBiT-GPCR construct library, NanoBRET)", "T1 sequence (P08588 whole entry)": "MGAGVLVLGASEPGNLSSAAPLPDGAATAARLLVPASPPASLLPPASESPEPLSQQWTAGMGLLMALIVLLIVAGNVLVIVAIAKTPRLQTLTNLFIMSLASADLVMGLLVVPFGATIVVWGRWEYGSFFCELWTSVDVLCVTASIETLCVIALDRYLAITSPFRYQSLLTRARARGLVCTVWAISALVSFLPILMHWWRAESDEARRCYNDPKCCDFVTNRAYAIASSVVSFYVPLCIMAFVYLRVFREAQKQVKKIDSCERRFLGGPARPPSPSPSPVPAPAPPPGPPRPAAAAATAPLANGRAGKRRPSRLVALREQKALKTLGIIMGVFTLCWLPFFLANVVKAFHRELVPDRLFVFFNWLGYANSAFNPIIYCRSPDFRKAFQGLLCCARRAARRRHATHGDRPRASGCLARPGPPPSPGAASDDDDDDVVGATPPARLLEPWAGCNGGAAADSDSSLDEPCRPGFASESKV", "test": "NanoBRET screen HiBiT-ADRB1 in HEK293", "type": "binding", "details": "ADRB1"}, "ADRB2": {"molecular_target": "T2, ADRB2 (Homo sapiens, UniProt P07550)", "T2 construct": "purchased Promega (in-house HiBiT-GPCR construct library, NanoBRET)", "T2 sequence (P07550 whole entry)": "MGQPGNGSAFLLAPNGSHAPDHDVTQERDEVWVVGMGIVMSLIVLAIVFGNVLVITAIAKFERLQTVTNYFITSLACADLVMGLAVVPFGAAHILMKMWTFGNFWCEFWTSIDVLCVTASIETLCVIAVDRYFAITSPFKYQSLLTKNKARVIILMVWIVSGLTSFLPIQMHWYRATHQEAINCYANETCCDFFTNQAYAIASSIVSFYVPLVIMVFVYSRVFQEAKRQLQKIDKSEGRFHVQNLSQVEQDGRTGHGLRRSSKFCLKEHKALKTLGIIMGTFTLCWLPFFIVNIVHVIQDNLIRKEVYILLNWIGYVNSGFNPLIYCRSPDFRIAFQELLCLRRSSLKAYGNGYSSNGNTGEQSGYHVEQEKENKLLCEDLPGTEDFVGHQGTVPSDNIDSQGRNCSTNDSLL", "test": "NanoBRET screen HiBiT-ADRB2 in HEK293", "type": "binding", "details": "ADRB2, other tracers/Quetiapine (unmodified)", "description": "(§2) Each tracer candidate was screened across the entire library of HiBiT-GPCR constructs using NanoBRET as the detection modality. As depicted in Figure 4A, the specificity of interactions was evaluated through decrease in BRET due to competitive displacement of a bound tracer by excess parental compound. Each tracer was analyzed for binding to each HiBiT-GPCR fusion in the absence and in the presence of competing parental compound. Briefly, HEK293 cells were transfected with HiBiT-GPCR constructs diluted into promoterless DNA to reduce expression and maximize translocation to the cell surface. Each tracer candidate was then screened at concentrations of 1 μM and 0.1 μM across cells expressing these fusions. Cells were treated for 1.5 h with tracer either alone or in the presence of 20 μM competing parental compound (i.e., control). BRET was measured upon addition of purified LgBiT and subsequent complementation with HiBiT genetically fused to a GPCR. The specificity of interactions was assessed through a decrease in BRET signal due to competitive displacement of the bound tracer. To further gauge the robustness of these interactions, the fold response over the control (i.e., BRETtracer/BRETcontrol) was calculated. We chose a 1.5-fold response, which translates to ≥7-fold signal over noise as the minimal threshold required to score an interaction as positive.\n(§3) HiBiT-GPCR DNA constructs were diluted in 10 mM Tris pH 8 to a final concentration of 0.01 μg/μL, arrayed in 96-well plates and stored at −20 °C. For transfection, HEK293 cells were suspended in Opti-MEM (without phenol red) supplemented with 2% fetal bovine serum (Seradigm) and 100 units/mL penicillin–streptomycin (Gibco) at a final concentration of 220,000 cells/mL and dispensed into white 96-well plates at 90 μL/well. Subsequent transfections and screens were carried using an Agilent Bravo Automated Liquid Handling Platform. First, the 96-well HiBiT DNA arrays were diluted 25-fold in Opti-MEM (without serum or phenol red) to a final concentration of 0.0004 μg/μL and 20 μL of the diluted DNAs were transferred into new 96-well plates. Next, promoterless carrier DNA (1 μg/μL) was diluted 25-fold (0.04 μg/μL) and then dispensed into the diluted arrays at 20 μL/well. Following brief mixing, Viafect transfection reagent (Promega) diluted 16-fold into Opti-MEM was dispensed into the plates at 40 μL/well. After mixing by pipetting, plates were incubated for 10 min on the pipetting station deck. The DNA-transfection reagent complexes were then added to plates containing cells. To facilitate the screen, 10 μL of DNA-transfection reagent complexes were added in duplicates to the top 4 and bottom 4 rows, resulting in two identical 48-well arrays per plate. Plates with transfected cells were incubated for 18–20 h at 37 °C/5% CO2. A screen of each tracer across the entire library using two different concentrations requires duplicate plates of transfected cells. Depending on the number of tracers being screened, transfections can be scaled up using the same ratios. The next day, for each tracer, four 20× screening solutions in tracer dilution buffer (Promega) were prepared: two duplicates at final concentration of 20 μM and two duplicates at a final concentration of 2 μM. […] The four resulting solutions were diluted 4-fold in Opti-MEM without serum or phenol red to generate 5× solutions (5 µM and 0.5 µM tracer +/− 100 μM competing compound). To screen the library, a BioTek MultiFlo FX liquid dispenser was used to dispense 22.5 µL of tracer solution to the top 4 rows and 22.5 µL tracer + competing compound solution to the 4 bottom rows. Plates were briefly mixed on an orbital shaker and incubated for 1.5 h at room temperature. […] Plates were briefly mixed on an orbital shaker and incubated for 15 min to allow complementation."}, "ADRB3": {"molecular_target": "T3, ADRB3 (Homo sapiens, UniProt P13945)", "T3 construct": "purchased Promega (in-house HiBiT-GPCR construct library, NanoBRET)", "T3 sequence (P13945 whole entry)": "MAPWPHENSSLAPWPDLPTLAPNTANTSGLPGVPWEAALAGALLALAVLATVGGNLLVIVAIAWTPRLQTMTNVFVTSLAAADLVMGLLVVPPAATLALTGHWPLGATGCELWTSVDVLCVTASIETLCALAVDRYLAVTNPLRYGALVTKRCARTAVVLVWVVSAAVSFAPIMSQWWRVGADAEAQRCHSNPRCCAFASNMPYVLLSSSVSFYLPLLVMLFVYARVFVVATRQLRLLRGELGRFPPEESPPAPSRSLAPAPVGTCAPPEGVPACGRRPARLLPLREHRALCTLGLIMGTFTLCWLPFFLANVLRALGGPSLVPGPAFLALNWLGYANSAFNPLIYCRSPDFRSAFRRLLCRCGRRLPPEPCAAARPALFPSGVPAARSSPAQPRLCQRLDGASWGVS", "test": "NanoBRET screen HiBiT-ADRB3 in HEK293", "type": "binding", "details": "ADRB3", "description": "as §2, §3"}, "OPRD1": {"molecular_target": "T4, OPRD1 (Homo sapiens, UniProt P41143)", "T4 construct": "purchased Promega (in-house HiBiT-GPCR construct library, NanoBRET)", "T4 sequence (P41143 whole entry)": "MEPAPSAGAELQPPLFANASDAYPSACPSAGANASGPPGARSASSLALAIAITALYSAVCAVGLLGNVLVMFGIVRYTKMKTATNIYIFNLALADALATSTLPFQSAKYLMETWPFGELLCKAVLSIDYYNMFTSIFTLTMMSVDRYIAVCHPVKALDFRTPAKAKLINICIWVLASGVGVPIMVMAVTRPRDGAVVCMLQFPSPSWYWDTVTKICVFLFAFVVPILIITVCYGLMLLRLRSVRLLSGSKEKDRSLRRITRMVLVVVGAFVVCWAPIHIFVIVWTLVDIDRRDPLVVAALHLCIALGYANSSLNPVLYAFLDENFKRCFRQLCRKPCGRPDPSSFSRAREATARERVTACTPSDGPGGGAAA", "test": "NanoBRET screen HiBiT-OPRD1 in HEK293", "type": "binding", "details": "OPRD1", "description": "as §2, §3"}, "OPRK1": {"molecular_target": "T5, OPRK1 (Homo sapiens, UniProt P41145)", "T5 construct": "purchased Promega (in-house HiBiT-GPCR construct library, NanoBRET)", "T5 sequence (P41145 whole entry)": "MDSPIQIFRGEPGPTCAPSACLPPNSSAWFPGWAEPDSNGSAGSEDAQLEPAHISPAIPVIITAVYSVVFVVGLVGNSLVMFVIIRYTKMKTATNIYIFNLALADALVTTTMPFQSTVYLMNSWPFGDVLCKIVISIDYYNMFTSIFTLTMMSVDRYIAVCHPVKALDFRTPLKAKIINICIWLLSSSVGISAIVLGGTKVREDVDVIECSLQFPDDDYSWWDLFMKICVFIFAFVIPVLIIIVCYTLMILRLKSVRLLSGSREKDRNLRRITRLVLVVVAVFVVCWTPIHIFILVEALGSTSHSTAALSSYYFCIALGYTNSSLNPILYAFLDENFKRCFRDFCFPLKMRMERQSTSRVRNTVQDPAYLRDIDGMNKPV", "test": "NanoBRET screen HiBiT-OPRK1 in HEK293", "type": "binding", "details": "OPRK1", "description": "as §2, with “positive. […]. Below we highlight the screening results obtained for our exemplary fluorescent tracers based on Clozapine, Amitriptyline and AZD1283.” for “positive.”\nHiBiT-GPCR DNA constructs were diluted in 10 mM Tris pH 8 to a final concentration of 0.01 μg/μL, arrayed in 96-well plates and stored at −20 °C. For transfection, HEK293 cells were suspended in Opti-MEM (without phenol red) supplemented with 2% fetal bovine serum (Seradigm) and 100 units/mL penicillin–streptomycin (Gibco) at a final concentration of 220,000 cells/mL and dispensed into white 96-well plates at 90 μL/well. Subsequent transfections and screens were carried using an Agilent Bravo Automated Liquid Handling Platform. First, the 96-well HiBiT DNA arrays were diluted 25-fold in Opti-MEM (without serum or phenol red) to a final concentration of 0.0004 μg/μL and 20 μL of the diluted DNAs were transferred into new 96-well plates. Next, promoterless carrier DNA (1 μg/μL) was diluted 25-fold (0.04 μg/μL) and then dispensed into the diluted arrays at 20 μL/well. Following brief mixing, Viafect transfection reagent (Promega) diluted 16-fold into Opti-MEM was dispensed into the plates at 40 μL/well. After mixing by pipetting, plates were incubated for 10 min on the pipetting station deck. The DNA-transfection reagent complexes were then added to plates containing cells. To facilitate the screen, 10 μL of DNA-transfection reagent complexes were added in duplicates to the top 4 and bottom 4 rows, resulting in two identical 48-well arrays per plate. Plates with transfected cells were incubated for 18–20 h at 37 °C/5% CO2. A screen of each tracer across the entire library using two different concentrations requires duplicate plates of transfected cells. Depending on the number of tracers being screened, transfections can be scaled up using the same ratios. The next day, for each tracer, four 20× screening solutions in tracer dilution buffer (Promega) were prepared: two duplicates at final concentration of 20 μM and two duplicates at a final concentration of 2 μM. A competing unmodified compound was added to one of each duplicate at a final concentration of 400 μM. The four resulting solutions were diluted 4-fold in Opti-MEM without serum or phenol red to generate 5× solutions (5 µM and 0.5 µM tracer +/− 100 μM competing compound). To screen the library, a BioTek MultiFlo FX liquid dispenser was used to dispense 22.5 µL of tracer solution to the top 4 rows and 22.5 µL tracer + competing compound solution to the 4 bottom rows. Plates were briefly mixed on an orbital shaker and incubated for 1.5 h at room temperature. […]"}, "OPRM1": {"molecular_target": "T6, OPRM1 (Homo sapiens, UniProt P35372)", "T6 construct": "purchased Promega (in-house HiBiT-GPCR construct library, NanoBRET)", "T6 sequence (P35372 whole entry)": "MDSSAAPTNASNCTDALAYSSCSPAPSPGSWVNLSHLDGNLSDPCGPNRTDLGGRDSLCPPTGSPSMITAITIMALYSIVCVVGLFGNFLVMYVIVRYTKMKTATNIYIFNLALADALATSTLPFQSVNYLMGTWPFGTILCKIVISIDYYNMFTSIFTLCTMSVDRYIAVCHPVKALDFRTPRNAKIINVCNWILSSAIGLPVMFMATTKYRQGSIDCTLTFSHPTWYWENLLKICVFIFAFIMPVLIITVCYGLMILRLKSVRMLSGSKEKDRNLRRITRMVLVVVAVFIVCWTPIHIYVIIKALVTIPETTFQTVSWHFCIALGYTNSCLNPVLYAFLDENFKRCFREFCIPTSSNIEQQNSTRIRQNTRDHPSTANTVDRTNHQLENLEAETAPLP", "test": "NanoBRET screen HiBiT-OPRM1 in HEK293", "type": "binding", "details": "OPRM1", "description": "as §2, §3"}, "[3]": {"details": "other tracers/Quetiapine (unmodified), 0.1μM"}, "[4]": {"details": "other tracers/Quetiapine (unmodified), 1μM"}, "[5]": {"details": "other tracers/Tolterodine (unmodified), 0.1μM"}, "[6]": {"details": "other tracers/Tolterodine (unmodified), 1μM"}}}
{"smiles": "CCCn1c(=O)c2[nH]c(-c3ccc(OCC(=O)NCCN)cc3)nc2n(CCC)c1=O", "note": "[XAC (unmodified)]", "values": [{"measurement": "NanoBRET Fold Response, other tracers/XAC (unmodified)", "setting": "[1]; ADRA1A, other tracer 0.1μM", "result": 3.51}, {"measurement": "NanoBRET Fold Response, other tracers/XAC (unmodified)", "setting": "[1]; ADRA1A, other tracer 1μM", "result": 1.56}, {"measurement": "NanoBRET Fold Response, other tracers/XAC (unmodified)", "setting": "[1]; ADRA1B, other tracer 0.1μM", "result": 1.61}, {"measurement": "NanoBRET Fold Response, other tracers/XAC (unmodified)", "setting": "[1]; ADRA1B, other tracer 1μM", "result": 1.32}, {"measurement": "NanoBRET Fold Response, other tracers/XAC (unmodified)", "setting": "[1]; ADRA2A, other tracer 0.1μM", "result": 1.12}, {"measurement": "NanoBRET Fold Response, other tracers/XAC (unmodified)", "setting": "[1]; ADRA2A, other tracer 1μM", "result": 1.14}, {"measurement": "NanoBRET Fold Response, other tracers/XAC (unmodified)", "setting": "[1]; ADRA2B, other tracer 0.1μM", "result": 4.34}, {"measurement": "NanoBRET Fold Response, other tracers/XAC (unmodified)", "setting": "[1]; ADRA2B, other tracer 1μM", "result": 1.57}, {"measurement": "NanoBRET Fold Response, other tracers/XAC (unmodified)", "setting": "[1]; ADRA2C, other tracer 0.1μM", "result": 1.33}]}
{"smiles": "N#CNC(=NCCCOc1cccc(CN2CCCCC2)c1)NCCNC(=O)c1ccc(N)cc1", "note": "[Aminopotentidine]", "values": [{"measurement": "Interaction verified via competitive displacement of tracer", "setting": "[1]", "result": "verify additional interactions"}, {"measurement": "Interaction verified via competitive displacement of tracer", "setting": "[2]", "result": "verify additional interactions"}, {"measurement": "Interaction verified via competitive displacement of tracer", "setting": "Dopamine receptors", "result": "verify additional interactions"}]}
{"smiles": "OCCOCCN1CCN(C2=Nc3ccccc3Sc3ccccc32)CC1", "note": "[Quetiapine (unmodified)]", "values": [{"measurement": "NanoBRET Fold Response", "setting": "ADRB1; [3]", "result": 1.33}, {"measurement": "NanoBRET Fold Response", "setting": "ADRB1; [4]", "result": 1.09}, {"measurement": "NanoBRET Fold Response", "setting": "ADRB2; 0.1μM", "result": 1.07}, {"measurement": "NanoBRET Fold Response", "setting": "ADRB2; 1μM", "result": 1.33}, {"measurement": "NanoBRET Fold Response", "setting": "ADRB3; [3]", "result": 1.11}, {"measurement": "NanoBRET Fold Response", "setting": "ADRB3; [4]", "result": 1.12}, {"measurement": "NanoBRET Fold Response", "setting": "OPRD1; [3]", "result": 1.31}, {"measurement": "NanoBRET Fold Response", "setting": "OPRD1; [4]", "result": 1.06}, {"measurement": "NanoBRET Fold Response", "setting": "OPRK1; [3]", "result": 1.76}, {"measurement": "NanoBRET Fold Response", "setting": "OPRK1; [4]", "result": 0.99}, {"measurement": "NanoBRET Fold Response", "setting": "OPRM1; [3]", "result": 1.29}, {"measurement": "NanoBRET Fold Response", "setting": "OPRM1; [4]", "result": 1.00}]}
{"smiles": "Cc1ccc(O)c([C@H](CCN(C(C)C)C(C)C)c2ccccc2)c1", "note": "[Tolterodine (unmodified)]", "values": [{"measurement": "NanoBRET Fold Response", "setting": "ADRB1; [5]", "result": 0.99}, {"measurement": "NanoBRET Fold Response", "setting": "ADRB1; [6]", "result": 1.01}, {"measurement": "NanoBRET Fold Response", "setting": "ADRB3; [5]", "result": 1.01}, {"measurement": "NanoBRET Fold Response", "setting": "OPRD1; [6]", "result": 0.91}, {"measurement": "NanoBRET Fold Response", "setting": "OPRK1; [5]", "result": 0.99}, {"measurement": "NanoBRET Fold Response", "setting": "OPRK1; [6]", "result": 1.00}, {"measurement": "NanoBRET Fold Response", "setting": "OPRM1; [5]", "result": 0.97}]}
{"smiles": "CCCn1c(=O)c2[nH]c(-c3ccc(OCC(=O)NCCN)cc3)nc2n(CCC)c1=O", "note": "[XAC, Xanthine amine congener, reference compound]", "values": [{"measurement": "Interaction verified via competitive displacement of tracer", "setting": "[1]", "result": "additional interactions"}]}
